This note sets out measurements from patent publication US8729081B2, “Compositions and methods for treating alcohol use disorders, pain and other diseases” (VM Discovery Inc., priority 2008, dated 2014).

Broadly, the IC50 is the point on the concentration scale where inhibition reaches its midpoint.

One experiment concerns the target T1, PKCε (h) (Homo sapiens, UniProt Q02156).
T1 construct: host or cells: insect cells
T1 sequence (Q02156 1-737): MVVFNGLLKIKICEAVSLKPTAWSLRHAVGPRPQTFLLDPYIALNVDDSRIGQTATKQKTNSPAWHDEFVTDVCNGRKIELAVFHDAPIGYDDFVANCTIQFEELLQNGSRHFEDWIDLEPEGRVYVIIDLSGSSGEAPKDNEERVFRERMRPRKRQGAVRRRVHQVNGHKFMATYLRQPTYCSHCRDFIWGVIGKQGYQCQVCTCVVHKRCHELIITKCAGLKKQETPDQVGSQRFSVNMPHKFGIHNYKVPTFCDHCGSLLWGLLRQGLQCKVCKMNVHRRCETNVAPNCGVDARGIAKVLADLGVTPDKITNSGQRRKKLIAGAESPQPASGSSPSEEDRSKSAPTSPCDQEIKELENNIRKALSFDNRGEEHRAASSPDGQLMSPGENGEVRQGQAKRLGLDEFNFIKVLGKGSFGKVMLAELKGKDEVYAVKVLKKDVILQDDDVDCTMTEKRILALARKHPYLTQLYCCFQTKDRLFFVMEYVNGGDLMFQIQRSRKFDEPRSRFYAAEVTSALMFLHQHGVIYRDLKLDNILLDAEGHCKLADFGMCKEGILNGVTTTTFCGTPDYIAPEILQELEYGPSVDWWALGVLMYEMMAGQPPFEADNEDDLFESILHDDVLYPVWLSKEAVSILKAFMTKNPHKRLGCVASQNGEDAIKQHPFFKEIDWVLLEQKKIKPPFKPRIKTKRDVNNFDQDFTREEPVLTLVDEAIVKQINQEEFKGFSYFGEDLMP
Kind of experiment: In vitro PKCε kinase assay (radiometric, [γ-33P-ATP], HotSpot). It counts as biochemical. The conditions noted are these: recombinant human PKCε, 10 μM ATP; read-out: IC50 in antagonizing the PKCε. The protocol: There are many in vitro commercially available and validated bioassays (Ma, H., et al, Expert Opin Drug Discov. 2008 June; 3(6): 607-621 and references therein) which can be used to characterize the activities of compounds of the present invention against PKCε protein kinase. Compounds can be tested against the activity of recombinant PKCε. In a final reaction volume of 25 μL, PKCε (h) (0.4 nM, Human recombinant protein expressed in insect cells. Mw=83.7 kDa) is incubated with kinase buffer (20 mM HEPES-HCl, pH 7.5, 10 mM MgCl2, 1 mM EGTA, 0.02% Brij35, 0.1 mM Na3VO4, 0.02 mg/ml BSA, 2 mM DTT, and 1% DMSO), 0.1 mg/mL phosphatidylserine, 10 μg/mL diacylglycerol, 20 μM S25-PKC peptide substrate (RFARKGSLRQKNV-OH, Mw=1561 Da), 10 mM MgAcetate and 10 μM [γ-33P-ATP] (specific activity approx. 500 cpm/pmol). The reaction is initiated by the addition of the MgATP mix. After incubation for 40 minutes at room temperature, the reaction is stopped by the addition of 5 μL of a 3% phosphoric acid solution. 10 μL of the reaction is then spotted onto a P30 filtermat and washed three times for 5 minutes in 75 mM phosphoric acid and once in methanol prior to drying and scintillation counting Control samples are incubated without inhibitor to measure maximal activity or with the general kinase inhibitor Staurosporine (5 μM) to measure complete inhibition. For each compound the % inhibition can be calculated by the formula, or by curve fits: % Inhibition=(Max activity−Activity with compound)/(Max activity−Activity with Control)*100. Compounds with inhibitory activity are assayed using at least 5 concentrations (1 nM-300 μM). Concentrations are adjusted to generate a complete dose-response curve. Each sample is assayed in duplicate and each experiment is repeated three times. Results are fitted by non-linear regression analysis to a sigmoidal dose-response curve with variable slope to calculate Hill slope, log IC50 and Imax values for each inhibitor, using the program Prism 5 (GraphPad Software, Inc., San Diego, Calif.).
Kinase profiling was performed using HotSpot technology (Reaction Biology Corp. 11 Malvern, Pa., USA). This technology is a radioisotope-based P81 filter-binding assay. Compound of the present invention were dissolved in pure DMSO to make a 10 mM stock, then diluted in pure DMSO to make a serial dilution based on the IC50 ranges. PKCε (h) (0.4 nM, human recombinant protein expressed in insect cells. Mw=83.7 kDa) and substrate (20 μM peptide substrate, [RFARKGSLRQKNV]) were diluted in the reaction buffer (20 mM HEPES-HCl, pH 7.5, 10 mM MgCl2, 1 mM EGTA, 0.02% Brij35, 0.1 mM Na3VO4, 0.02 mg/ml BSA, 2 mM DTT, and 1% DMSO), and then 5 nL of compound was delivered into PKCε (h) and substrate mixture by acoustic technology using Echo 550 (LabCyte Inc., Sunnyvale, Calif.). The reaction was initiated by the addition of [γ-33P-ATP] into the reaction mixture (final concentration was 10 μM) and stopped after at least 40 min incubation at room temperature. The unreacted free 33P-ATP was washed away before detection.
The intrinsic PKCε antagonist activity of a compound which may be used in the present invention may be determined by these assays. […] Such a result is indicative of the intrinsic activity of the compounds in use as antagonists of PKCε.
Consider `C/C(=C1/Oc2ccccc2N(Cc2ccc(F)cc2F)C1=O)c1ccc(C(=O)NCCCN2CCOCC2)cc1` [Compound 837, 4-{(1Z/1E)-1-[4-(2,4-difluorobenzyl)-3-oxo-3,4-dihydro-2H-1,4-benzoxazin-2-ylidene]ethyl}-N-[3-(morpholin-4-yl)propyl]benzamide], for which the IC50 lay within 10 to 1000 nM.

As to `CC(=C1Oc2ccccc2N(Cc2ccc(F)cc2)C1=O)c1ccc(C(=O)NCCCN2CCOCC2)cc1` (mixture of isomers) [Compound 829, N-4-{(1Z/1E)-1-[4-(4-fluorobenzyl)-3-oxo-3,4-dihydro-2H-1,4-benzoxazin-2-ylidene]ethyl}-N-[3-(morpholin-4-yl)propyl]benzamide], the IC50 lay within 10 to 1000 nM.

As for `O=C(NCCCN1CCCC1)c1ccc(C=C2Oc3ccccc3N(Cc3ccccc3C(F)(F)F)C2=O)cc1` (mixture of isomers) [Compound 801, 4-[(Z/E)-{3-oxo-4-[2-(trifluoromethyl)benzyl]-3,4-dihydro-2H-1,4-benzoxazin-2-ylidene}methyl]-N-[3-(pyrrolidin-1-yl)propyl]benzamide], the IC50 lay in the range of 10 to 1000 nM.

Turning to `O=C(NCCCc1ccncc1)c1ccc(C=C2Sc3ccccc3N(Cc3ccccc3F)C2=O)cc1` (mixture of isomers) [Compound 825, 4-{(Z/E)-[4-(2-fluorobenzyl)-3-oxo-3,4-dihydro-2H-1,4-benzothiazin-2-ylidene]methyl}-N-[3-(pyridin-4-yl)propyl]benzamide], the IC50 was in the range of 10 to 1000 nM.

For `Cc1oc(-c2ccc3c(c2)OCO3)nc1CN1CCC(C(=O)NCCCN2CCCCCC2)CC1` [Compound 949, N-[3-(azepan-1-yl)propyl]-1-{[2-(1,3-benzodioxol-5-yl)-5-methyl-1,3-oxazol-4-yl]methyl}piperidine-4-carboxamide], the IC50 was in the range of 10 to 1000 nM.

In the case of `Cc1oc(-c2cccc(Cl)c2)nc1CN1CCC(C(=O)NCCCN2CCC(Cc3cccc(Cl)c3)CC2)CC1` [Compound 911, N-{3-[4-(3-chlorobenzyl)piperidin-1-yl]propyl}-1-{[2-(3-chlorophenyl)-5-methyl-1,3-oxazol-4-yl]methyl}piperidine-4-carboxamide], the IC50 lay within 10 to 1000 nM.

In the case of `Cc1oc(-c2ccc(Cl)cc2)nc1CN1CCC(C(=O)NCCCN2CCC(Cc3ccccc3)CC2)CC1` [Compound 907, N-[3-(4-benzylpiperidin-1-yl)propyl]-1-{[2-(4-chlorophenyl)-5-methyl-1,3-oxazol-4-yl]methyl}piperidine-4-carboxamide], the IC50 was 10 to 1000 nM.

For `CN(CCCN1CCOCC1)C(=O)c1ccc(C=C2Oc3ccccc3N(Cc3ccccc3F)C2=O)cc1` (mixture of isomers) [Compound 841, 4-{(Z/E)-[4-(2-fluorobenzyl)-3-oxo-3,4-dihydro-2H-1,4-benzoxazin-2-ylidene]methyl}-N-methyl-N-[3-(morpholin-4-yl)propyl]benzamide], the IC50 was in the range of 10 to 1000 nM.

With `Cc1oc(-c2ccc(Cl)cc2)nc1CN1CCC(C(=O)NCCCN2CCOCC2)CC1` [Compound 935, 1-{[2-(4-chlorophenyl)-5-methyl-1,3-oxazol-4-yl]methyl}-N-[3-(morpholin-4-yl)propyl]piperidine-4-carboxamide], the IC50 lay within 10 to 1000 nM.

As for `CC(=C1Oc2ccccc2N(Cc2ccc(F)cc2)C1=O)c1ccc(C(=O)NCCCN2CCCCCC2)cc1` (mixture of isomers) [Compound 821, N-[3-(azepan-1-yl)propyl]-4-{(1Z/1E)-1-[4-(4-fluorobenzyl)-3-oxo-3,4-dihydro-2H-1,4-benzoxazin-2-ylidene]ethyl}benzamide], the IC50 was 10 to 1000 nM.

Turning to `Cc1oc(-c2ccc(Cl)cc2)nc1CN1CCC(C(=O)NCCCN2CCCCCC2)CC1` [Compound 901, N-[3-(azepan-1-yl)propyl]-1-{[2-(4-chlorophenyl)-5-methyl-1,3-oxazol-4-yl]methyl}piperidine-4-carboxamide], the IC50 lay within 10 to 1000 nM.

As to `O=C(NCCCN1CCCCCC1)c1ccc(C=C2Sc3ccccc3N(Cc3ccccc3F)C2=O)cc1` (mixture of isomers) [Compound 485, N-[3-(azepan-1-yl)propyl]-4-{(Z/E)-[4-(2-fluorobenzyl)-3-oxo-3,4-dihydro-2H-1,4-benzothiazin-2-ylidene]methyl}benzamide], the IC50 fell in the range of 10 to 1000 nM.

For the compound `O=C(NCN1CCC2CCCCC2C1)c1ccc(/C=C2\Oc3ccccc3N(Cc3ccccc3F)C2=O)cc1` (mixture of isomers) [Compound 817, 4-{(Z/E)-[4-(2-fluorobenzyl)-3-oxo-3,4-dihydro-2H-1,4-benzoxazin-2-ylidene]methyl}-N-(octahydroisoquinolin-2(1H)-ylmethyl)benzamide], the IC50 is 10 to 1000 nM.

For the compound `Cc1oc(-c2ccc(Cl)cc2)nc1CN1CCC(C(=O)N(C)CCCN2CCCCCC2)CC1` [Compound 929, N-[3-(azepan-1-yl)propyl]-1-{[2-(4-chlorophenyl)-5-methyl-1,3-oxazol-4-yl]methyl}-N-methylpiperidine-4-carboxamide], the IC50 lay in the range of 10 to 1000 nM.

Regarding `O=C(NCCCN1CCCC1)c1ccc(/C=C2\Oc3ccccc3N(Cc3ccccc3F)C2=O)cc1` [Compound 483, 4-{(Z/E)-[4-(2-fluorobenzyl)-3-oxo-3,4-dihydro-2H-1,4-benzoxazin-2-ylidene]methyl}-N-[3-(pyrrolidin-1-yl)propyl]benzamide hydrate], the IC50 is 10 to 1000 nM.

In the case of `Cc1oc(-c2ccc(Cl)cc2)nc1CN1CCC(C(=O)NCCN2CCCC2)CC1` [Compound 597, 1-{[2-(4-chlorophenyl)-5-methyl-1,3-oxazol-4-yl]methyl}-N-(2-pyrrolidin-1-ylethyl)piperidine-4-carboxamide], the IC50 is 10 to 1000 nM.

Another experiment deals with C57BL/6J mice. As to the kind of experiment: Alcohol intake in Drink-in-Dark (DID) model. Type of experiment: in vivo. To be noted: 4-hr drinking in the dark (DID) protocol, compared with vehicle control, FIG. 2. An excerpt: FIG. 2. […] The data are presented as mean±SEM. *p<0.05, ***p<0.001 as compared with the vehicle control.
Alcohol Intake in Drink-in-Dark (DID) model (Rhodes J S, et al, Physiol Behav. (2005) 84:53-63). Mice are acclimated in animal facility and housed three to four per cage in standard cages until 1 week prior to the start of an experiment when they are transferred to individual housing. Approximately 2 weeks prior to the start of an experiment, the mice are switched to a reverse light/dark schedule such that lights turned on at 2030 h and off at 0830 h. Food (Purina 5001™) is always provided ad libitum. Water is provided ad libitum except when ethanol is substituted for water for 4 h per day. The animals are divided into 4 groups and given intraperitoneal (i.p.) injections of vehicle, and a test article (TA) at 5, 20 and 50 mg/kg body weight, respectively, starting 3 h after lights off in the animal rooms. Then the water bottles are replaced with 10 ml graduated cylinders fitted with sipper tubes containing 20% (v/v) ethanol in tap water. The ethanol cylinders remain in place for 4 h. The fluid levels are checked every 30 minutes for 4 h. After the 4-h period, the ethanol cylinders are replaced with water bottles. […] Similarly, mice are administered with TA by oral gavage and ethanol or water intake is monitored for 4 h.
Regarding `Cc1oc(-c2ccc(Cl)cc2)nc1CN1CCC(C(=O)NCCCN2CCCCCC2)CC1` [Compound 901, N-[3-(azepan-1-yl)propyl]-1-{[2-(4-chlorophenyl)-5-methyl-1,3-oxazol-4-yl]methyl}piperidine-4-carboxamide], the “oral intake of alcohol (20% ethanol)” value is “significantly reduced”.
